Experimental data reported in patent publication US20230248626A1, “Compositions Comprising (Bio)-Alkanediols” (Symrise AG, priority 0001, published 2023).
In brackets after ≈: the same amount, converted by molar mass.

Legend:
Assay type in all cases: cell-based
[1] = system: Candida albicans; experiment: MIC test (growth inhibition, 96 well plates, OD); conditions: read-out: Minimum Inhibitory Concentration (MIC)
[2] = system: Corynebacterium jeikeium; experiment: MIC test (growth inhibition, 96 well plates, OD); conditions: read-out: Minimum Inhibitory Concentration (MIC)
[3] = system: Escherichia coli; experiment: MIC test (growth inhibition, 96 well plates, OD); conditions: read-out: Minimum Inhibitory Concentration (MIC)
[4] = system: Propionibacterium acnes; experiment: MIC test (growth inhibition, 96 well plates, OD); conditions: Cutibacterium acnes; read-out: Minimum Inhibitory Concentration (MIC)
[5] = system: Staphylococcus aureus; experiment: MIC test (growth inhibition, 96 well plates, OD); conditions: read-out: Minimum Inhibitory Concentration (MIC)
[6] = system: Staphylococcus hominis; experiment: MIC test (growth inhibition, 96 well plates, OD); conditions: read-out: Minimum Inhibitory Concentration (MIC)
[7] = system: Aspergillus brasiliensis; experiment: MIC and Kull synergy index of 1,2-/2,3-alkanediol mixtures; conditions: single 2,3-alkanediol, read-out: MIC Component B
[8] = system: Aspergillus brasiliensis (AB); experiment: Preservation efficacy test (PET), European Pharmacopoeia 5.1.3
Outline: (§1)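 Preparations challenged with prescribed inoculums per European Pharmacopoeia 5.1.3, counting microorganisms after the prescribed time. Adequate preservation means a significant fall or no increase in counts.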

[9] = system: Candida albicans (CA); experiment: as above
Outline: as §1

[10] = system: Escherichia coli (EC); experiment: as above
Outline: as §1

[11] = system: Pseudomonas aeruginosa (PA); experiment: as above
Outline: as §1

[12] = system: Staphylococcus aureus (SA); experiment: as above
Outline: as §1

SMILES: CCCCC(O)C(C)O (stereo not drawn) [2,3-heptanediol]
- MIC [1]: > 5000 µg/mL
- MIC [2]: > 5000 µg/mL
- MIC [3]: > 5000 µg/mL
- MIC [4]: > 5000 µg/mL
- MIC [5]: 20000 µg/mL (≈ 151 mM)
- MIC [6]: > 5000 µg/mL
- MIC [7]: 7500 µg/mL
- number of microorganisms after 2 days ([8]; 0.1% in shampoo): 1,600,000
- number of microorganisms after 7 days ([8]; 0.1% in shampoo): 970,000
- number of microorganisms after 14 days ([8]; 0.1% in shampoo): 110,000
- number of microorganisms after 28 days ([8]; 0.1% in shampoo): 120,000
- number of microorganisms after 2 days ([8]; 0.2% in o/w emulsion): 1,600,000
- number of microorganisms after 7 days ([8]; 0.2% in o/w emulsion): 1,600,000
- number of microorganisms after 14 days ([8]; 0.2% in o/w emulsion): 3,000,000
- number of microorganisms after 28 days ([8]; 0.2% in o/w emulsion): 2,000,000
- number of microorganisms after 2 days ([8]; 0.4% in o/w emulsion): 790,000
- number of microorganisms after 7 days ([8]; 0.4% in o/w emulsion): 930,000
- number of microorganisms after 14 days ([8]; 0.4% in o/w emulsion): 500,000
- number of microorganisms after 28 days ([8]; 0.4% in o/w emulsion): 390,000
- number of microorganisms after 2 days ([8]; 0.4% in shampoo): 2,200,000
- number of microorganisms after 7 days ([8]; 0.4% in shampoo): 350,000
- number of microorganisms after 14 days ([8]; 0.4% in shampoo): 130,000
- number of microorganisms after 28 days ([8]; 0.4% in shampoo): 140,000
- number of microorganisms after 2 days ([9]; 0.1% in shampoo): 110,000
- number of microorganisms after 7 days ([9]; 0.1% in shampoo): 20,000
- number of microorganisms after 14 days ([9]; 0.1% in shampoo): 100
- number of microorganisms after 28 days ([9]; 0.1% in shampoo): 1
- number of microorganisms after 2 days ([9]; 0.2% in o/w emulsion): 1,900,000
- number of microorganisms after 7 days ([9]; 0.2% in o/w emulsion): 2,200,000
- number of microorganisms after 14 days ([9]; 0.2% in o/w emulsion): 2,100,000
- number of microorganisms after 28 days ([9]; 0.2% in o/w emulsion): 370,000
- number of microorganisms after 2 days ([9]; 0.4% in o/w emulsion): 640,000
- number of microorganisms after 7 days ([9]; 0.4% in o/w emulsion): 350,000
- number of microorganisms after 14 days ([9]; 0.4% in o/w emulsion): 130,000
- number of microorganisms after 28 days ([9]; 0.4% in o/w emulsion): 11,000
- number of microorganisms after 2 days ([9]; 0.4% in shampoo): 81
- number of microorganisms after 7 days ([9]; 0.4% in shampoo): 1
- number of microorganisms after 14 days ([9]; 0.4% in shampoo): 1
- number of microorganisms after 28 days ([9]; 0.4% in shampoo): 1
- number of microorganisms after 2 days ([10]; 0.1% in shampoo): 1,100,000
- number of microorganisms after 7 days ([10]; 0.1% in shampoo): 1,500,000
- number of microorganisms after 14 days ([10]; 0.1% in shampoo): 1,600,000
- number of microorganisms after 28 days ([10]; 0.1% in shampoo): 1,400,000
- number of microorganisms after 2 days ([10]; 0.2% in o/w emulsion): 170,000
- number of microorganisms after 7 days ([10]; 0.2% in o/w emulsion): 1,600
- number of microorganisms after 14 days ([10]; 0.2% in o/w emulsion): 82
- number of microorganisms after 28 days ([10]; 0.2% in o/w emulsion): 1
- number of microorganisms after 2 days ([10]; 0.4% in o/w emulsion): 320,000
- number of microorganisms after 7 days ([10]; 0.4% in o/w emulsion): 2,400
- number of microorganisms after 14 days ([10]; 0.4% in o/w emulsion): 1
- number of microorganisms after 28 days ([10]; 0.4% in o/w emulsion): 1
- number of microorganisms after 2 days ([10]; 0.4% in shampoo): 1,200,000
- number of microorganisms after 7 days ([10]; 0.4% in shampoo): 100,000
- number of microorganisms after 14 days ([10]; 0.4% in shampoo): 75,000
- number of microorganisms after 28 days ([10]; 0.4% in shampoo): 380,000
- number of microorganisms after 2 days ([11]; 0.1% in shampoo): 230,000
- number of microorganisms after 7 days ([11]; 0.1% in shampoo): 730,000
- number of microorganisms after 14 days ([11]; 0.1% in shampoo): 3,500,000
- number of microorganisms after 28 days ([11]; 0.1% in shampoo): 7,000,000
- number of microorganisms after 2 days ([11]; 0.2% in o/w emulsion): 1
- number of microorganisms after 7 days ([11]; 0.2% in o/w emulsion): 1
- number of microorganisms after 14 days ([11]; 0.2% in o/w emulsion): 1
- number of microorganisms after 28 days ([11]; 0.2% in o/w emulsion): 1
- number of microorganisms after 2 days ([11]; 0.4% in o/w emulsion): 1
- number of microorganisms after 7 days ([11]; 0.4% in o/w emulsion): 1
- number of microorganisms after 14 days ([11]; 0.4% in o/w emulsion): 1
- number of microorganisms after 28 days ([11]; 0.4% in o/w emulsion): 1
- number of microorganisms after 2 days ([11]; 0.4% in shampoo): 2,900
- number of microorganisms after 7 days ([11]; 0.4% in shampoo): 1
- number of microorganisms after 14 days ([11]; 0.4% in shampoo): 1
- number of microorganisms after 28 days ([11]; 0.4% in shampoo): 1
- number of microorganisms after 2 days ([12]; 0.1% in shampoo): 27,000
- number of microorganisms after 7 days ([12]; 0.1% in shampoo): 490
- number of microorganisms after 14 days ([12]; 0.1% in shampoo): 1
- number of microorganisms after 28 days ([12]; 0.1% in shampoo): 1
- number of microorganisms after 2 days ([12]; 0.2% in o/w emulsion): 1,300,000
- number of microorganisms after 7 days ([12]; 0.2% in o/w emulsion): 790,000
- number of microorganisms after 14 days ([12]; 0.2% in o/w emulsion): 55
- number of microorganisms after 28 days ([12]; 0.2% in o/w emulsion): 1
- number of microorganisms after 2 days ([12]; 0.4% in o/w emulsion): 1,000,000
- number of microorganisms after 7 days ([12]; 0.4% in o/w emulsion): 12,000
- number of microorganisms after 14 days ([12]; 0.4% in o/w emulsion): 1
- number of microorganisms after 28 days ([12]; 0.4% in o/w emulsion): 1
- number of microorganisms after 2 days ([12]; 0.4% in shampoo): 3,500
- number of microorganisms after 7 days ([12]; 0.4% in shampoo): 1
- number of microorganisms after 14 days ([12]; 0.4% in shampoo): 1
- number of microorganisms after 28 days ([12]; 0.4% in shampoo): 1
